Tested on: Lactobacillus acidipiscis NBRC 102164
Test: Antimicrobial action of licoricidin in liquid seasoning (1), lactic acid bacteria D
Format: cell-based
Parameters: key: A: The bacterial count decreases to less than 10% of the bacterial count of the control group.; B: The bacterial count decreases to 10% or more and less than 50% of the bacterial count of the control group.; C: The bacterial count decreases to 50% or more and less than 100% of the bacterial count of control group.; D: The bacterial count is the same as the bacterial count of the control group
Procedure: Commercially available whole soybean soy sauce (produced by Kikkoman Corporation) was electrodialyzed and then concentrated under reduced pressure to obtain soy sauce at a salt concentration of 0% (w/v) and an alcohol concentration of 0% (v/v). Then, salt and/or alcohol was added to the above-mentioned obtained soy sauce, and the mixture was heat-treated to produce soy sauces at salt concentrations and alcohol concentrations shown in the following Table 5. The pHs of the soy sauces were 4.9 to 5.0.
Specifically, components contained in dried bonito was extracted with alcohol and water; sugar, salt, and seasonings were blended with the obtained extract; and the resulting mixture was heated to produce bonito stock. The salt concentration of the obtained bonito stock was 0.2% (w/v), the alcohol concentration was 0.15% (v/v), and the pH was 6.1.
Specifically, Koikuchi soy sauce (produced by Kikkoman Corporation), granulated sugar, potato starch, and water were blended in amounts shown in following Table 7, and the resulting mixture was heated to produce sauce. The salt concentration of the obtained sauce was 5.3% (w/v), the alcohol concentration was 0.8% (v/v), and the pH was 5.0.
Specifically, the components contained in dried bonito was extracted with water; Koikuchi soy sauce (produced by Kikkoman Corporation), sugar, and salt were blended with the obtained extract; and the resulting mixture was heated to produce Japanese seasoned soup stock. The salt concentration of the obtained Japanese seasoned soup stock was 3% (w/v), the alcohol concentration was 0.4% (v/v), and the pH was 5.5.
Licoricidin (produced by ChemFaces) was added to each of the liquid seasonings produced in the above-mentioned (1) to concentrations of 1 ppm, 5 ppm, 10 ppm, 25 ppm, and 50 ppm. Lactic acid bacteria described in the following Table 9 were then added to 10^6 to 10^7 cells/mL and cultured at 30° C. for 7 days. After the culture, the number of lactic acid bacteria was measured using the GAM agar medium “Nissui”. Liquid seasoning to which licoricidin was not added was used as a control group, and the antimicrobial activity was evaluated in comparison with the number of lactic acid bacteria in the control group. The evaluation was performed using the criterion shown below.
• A: The bacterial count decreases to less than 10% of the bacterial count of the control group. • B: The bacterial count decreases to 10% or more and less than 50% of the bacterial count of the control group. • C: The bacterial count decreases to 50% or more and less than 100% of the bacterial count of control group. • D: The bacterial count is the same as the bacterial count of the control group.

## COc1c(CC=C(C)C)c(O)cc2c1C[C@H](c1ccc(O)c(CC=C(C)C)c1O)CO2 [Licoricidin, 4-[(R)-7-hydroxy-5-methoxy-6-(3-methyl-2-butenyl)chroman-3-yl]-2-(3-methyl-2-butenyl)-1,3-benzenediol]
Bonito stock (salt 0.2% (w/v), alcohol 0.15% (v/v), pH 6.1), licoricidin 1 ppm
  Antimicrobial activity: A (The bacterial count decreases to less than 10% of the bacterial count of the control group.)
Bonito stock (salt 0.2% (w/v), alcohol 0.15% (v/v), pH 6.1), licoricidin 5 ppm
  Antimicrobial activity: A (The bacterial count decreases to less than 10% of the bacterial count of the control group.)
Bonito stock (salt 0.2% (w/v), alcohol 0.15% (v/v), pH 6.1), licoricidin 10 ppm
  Antimicrobial activity: A (The bacterial count decreases to less than 10% of the bacterial count of the control group.)
Bonito stock (salt 0.2% (w/v), alcohol 0.15% (v/v), pH 6.1), licoricidin 25 ppm
  Antimicrobial activity: A (The bacterial count decreases to less than 10% of the bacterial count of the control group.)
Bonito stock (salt 0.2% (w/v), alcohol 0.15% (v/v), pH 6.1), licoricidin 50 ppm
  Antimicrobial activity: A (The bacterial count decreases to less than 10% of the bacterial count of the control group.)
Japanese seasoned soup stock (salt 3% (w/v), alcohol 0.4% (v/v), pH 5.5), licoricidin 1 ppm
  Antimicrobial activity: D
Japanese seasoned soup stock (salt 3% (w/v), alcohol 0.4% (v/v), pH 5.5), licoricidin 5 ppm
  Antimicrobial activity: A (The bacterial count decreases to less than 10% of the bacterial count of the control group.)
Japanese seasoned soup stock (salt 3% (w/v), alcohol 0.4% (v/v), pH 5.5), licoricidin 10 ppm
  Antimicrobial activity: A (The bacterial count decreases to less than 10% of the bacterial count of the control group.)
Japanese seasoned soup stock (salt 3% (w/v), alcohol 0.4% (v/v), pH 5.5), licoricidin 25 ppm
  Antimicrobial activity: A (The bacterial count decreases to less than 10% of the bacterial count of the control group.)
Japanese seasoned soup stock (salt 3% (w/v), alcohol 0.4% (v/v), pH 5.5), licoricidin 50 ppm
  Antimicrobial activity: A (The bacterial count decreases to less than 10% of the bacterial count of the control group.)
Sauce (salt 5.3% (w/v), alcohol 0.8% (v/v), pH 5.0), licoricidin 1 ppm
  Antimicrobial activity: C (The bacterial count decreases to 50% or more and less than 100% of the bacterial count of control group.)
Sauce (salt 5.3% (w/v), alcohol 0.8% (v/v), pH 5.0), licoricidin 5 ppm
  Antimicrobial activity: C (The bacterial count decreases to 50% or more and less than 100% of the bacterial count of control group.)
Sauce (salt 5.3% (w/v), alcohol 0.8% (v/v), pH 5.0), licoricidin 10 ppm
  Antimicrobial activity: A (The bacterial count decreases to less than 10% of the bacterial count of the control group.)
Sauce (salt 5.3% (w/v), alcohol 0.8% (v/v), pH 5.0), licoricidin 25 ppm
  Antimicrobial activity: A (The bacterial count decreases to less than 10% of the bacterial count of the control group.)
Sauce (salt 5.3% (w/v), alcohol 0.8% (v/v), pH 5.0), licoricidin 50 ppm
  Antimicrobial activity: A (The bacterial count decreases to less than 10% of the bacterial count of the control group.)
Soy sauce, salt 0% (w/v), alcohol 0% (v/v), licoricidin 1 ppm
  Antimicrobial activity: C (The bacterial count decreases to 50% or more and less than 100% of the bacterial count of control group.)
Soy sauce, salt 0% (w/v), alcohol 0% (v/v), licoricidin 5 ppm
  Antimicrobial activity: C (The bacterial count decreases to 50% or more and less than 100% of the bacterial count of control group.)
Soy sauce, salt 0% (w/v), alcohol 0% (v/v), licoricidin 10 ppm
  Antimicrobial activity: B (The bacterial count decreases to 10% or more and less than 50% of the bacterial count of the control group.)
Soy sauce, salt 0% (w/v), alcohol 0% (v/v), licoricidin 25 ppm
  Antimicrobial activity: A (The bacterial count decreases to less than 10% of the bacterial count of the control group.)
Soy sauce, salt 0% (w/v), alcohol 0% (v/v), licoricidin 50 ppm
  Antimicrobial activity: A (The bacterial count decreases to less than 10% of the bacterial count of the control group.)
Soy sauce, salt 4% (w/v), alcohol 0% (v/v), licoricidin 1 ppm
  Antimicrobial activity: D
Soy sauce, salt 4% (w/v), alcohol 0% (v/v), licoricidin 5 ppm
  Antimicrobial activity: A (The bacterial count decreases to less than 10% of the bacterial count of the control group.)
Soy sauce, salt 4% (w/v), alcohol 0% (v/v), licoricidin 10 ppm
  Antimicrobial activity: A (The bacterial count decreases to less than 10% of the bacterial count of the control group.)
Soy sauce, salt 4% (w/v), alcohol 0% (v/v), licoricidin 25 ppm
  Antimicrobial activity: A (The bacterial count decreases to less than 10% of the bacterial count of the control group.)
Soy sauce, salt 4% (w/v), alcohol 0% (v/v), licoricidin 50 ppm
  Antimicrobial activity: A (The bacterial count decreases to less than 10% of the bacterial count of the control group.)
Soy sauce, salt 8% (w/v), alcohol 0% (v/v), licoricidin 1 ppm
  Antimicrobial activity: C (The bacterial count decreases to 50% or more and less than 100% of the bacterial count of control group.)
Soy sauce, salt 8% (w/v), alcohol 0% (v/v), licoricidin 5 ppm
  Antimicrobial activity: A (The bacterial count decreases to less than 10% of the bacterial count of the control group.)
Soy sauce, salt 8% (w/v), alcohol 0% (v/v), licoricidin 10 ppm
  Antimicrobial activity: A (The bacterial count decreases to less than 10% of the bacterial count of the control group.)
Soy sauce, salt 8% (w/v), alcohol 0% (v/v), licoricidin 25 ppm
  Antimicrobial activity: A (The bacterial count decreases to less than 10% of the bacterial count of the control group.)
Soy sauce, salt 8% (w/v), alcohol 0% (v/v), licoricidin 50 ppm
  Antimicrobial activity: A (The bacterial count decreases to less than 10% of the bacterial count of the control group.)
Soy sauce, salt 12% (w/v), alcohol 0% (v/v), licoricidin 1 ppm
  Antimicrobial activity: D
Soy sauce, salt 12% (w/v), alcohol 0% (v/v), licoricidin 5 ppm
  Antimicrobial activity: A (The bacterial count decreases to less than 10% of the bacterial count of the control group.)
Soy sauce, salt 12% (w/v), alcohol 0% (v/v), licoricidin 10 ppm
  Antimicrobial activity: A (The bacterial count decreases to less than 10% of the bacterial count of the control group.)
Soy sauce, salt 12% (w/v), alcohol 0% (v/v), licoricidin 25 ppm
  Antimicrobial activity: A (The bacterial count decreases to less than 10% of the bacterial count of the control group.)
Soy sauce, salt 12% (w/v), alcohol 0% (v/v), licoricidin 50 ppm
  Antimicrobial activity: A (The bacterial count decreases to less than 10% of the bacterial count of the control group.)

Source: patent US20230276831A1, “Food/Beverage Article” (Kikkoman Corporation, priority 2020, published 2023)
